“Also recorded” adds a separate entry of the source. Counter-ions that a name gives are not always drawn.
How the values were obtained:
[1] = Stability of CPZ in aqueous solution; assay type: physicochemical; conditions: aqueous solution / cell culture medium
SH-SY5Y cells [2] = assay: Transferrin (Trf) uptake under pharmacological endocytosis inhibitors (control for clathrin-mediated endocytosis); assay type: cell-based, human; conditions: for effect of inhibitor on Trf uptake: 10 µM cytochalasin A, 25 µg/ml cytochalasin D, 10 µM IPA-3 or 25 nM wortmannin, Trf 5 µg/ml 5 min
Protocol: (§1) Flow cytometry was used to quantify cellular uptake. The samples were washed in serum free medium (1x for experiments including only Aβ and 3x for experiments with Trf) prior to incubation with Aβ peptides and/or other reagents in serum free medium supplemented with 30 mM HEPES and 2% B-27. For experiments including Trf B-27 was omitted, as outlined above. Prior to analysis, the cells were washed 1x (for experiments including only Aβ) or 3x (for experiments including Aβ and dextran 10 kDa or Trf) in serum free medium, detached by trypsin-EDTA for 10 min followed by addition of FBS-supplemented cell culture medium to inhibit further proteolytic degradation. All samples were kept on ice until they were analysed on a Guava EasyCyte 8HT (Millipore, Darmstadt, Germany) that automatically retrieves samples from a 96-well plate. In order to exclude effects due to difference in delay time we used mixed order of analysis, loading only a few samples at a time with the remaining samples kept on ice. The cell counting gate was determined using propidium iodide (0.5 µM, not washed away prior to analysis) and calcein-AM (10 nM, 15 min staining) to distinguish live and dead cells, and for each sample 5,000 cells from within the live gate were counted and analysed. HF488, AlexaFluor488, EGFP and calcein-AM were excited by a 488 nm laser and their fluorescence was detected through a 525/30 nm filter. Propidium iodide and mRFP were excited by the 488 nm laser but detected through a 692/46 nm filter. HF647 and AlexaFluor647 were excited with a 635 nm laser and detected through a 661/19 nm filter. Compensation was performed to adjust for bleed through in experiments including mRFP. Mean cellular uptake was estimated as the average fluorescence intensity of all cells gated within the live region and all individual experiments were performed with three technical replicates (n = 3) unless else is stated. The average fluorescence intensity was baseline corrected by subtracting the signal for unstained cells.
Endocytic mechanisms were also perturbed by treatment of cells with pharmacological inhibitors. Stock solutions of cytochalasin A, cytochalasin D, dynasore, wortmannin and IPA-3 were prepared in DMSO and diluted in serum-free cell culture media supplemented with 30 mM HEPES on the day of the experiment. The final DMSO concentration added to the cells was kept <0.1% and matched for the control. Prior to addition of Aβ peptide the cells were always washed in serum-free medium followed by pre-incubation for 30 min with either of the inhibitors diluted in serum-free medium with the addition of 30 mM HEPES. 1 µM Aβ was thereafter added and the cells were incubated for a total of 1 h, in presence of the respective inhibitors. The cells were centrifuged 1000 * g for 5 min at 4 °C, washed 3x with ice-cold serum-free medium, followed by detachment and immediate flow cytometry analysis, as detailed above. […] However, under exposure conditions where at least 75% if the inhibitor-treated cells were found in the live gate (see Supplementary Fig. S5) we observed reductions in Aβ uptake. Only the live cells were included in the analysis. Trf was used as a positive control for clathrin-mediated endocytosis. Due to the rapid uptake and recycling of internalized Trf we adopted an optimized protocol with sufficiently short Trf incubation times. First, to remove the quantities of membrane-bound Trf that originate from the serum component of the complete culture medium the cells were washed 3x in serum-free medium. The cells were then subjected to the inhibitors as described above and thereafter exposed to a 5 min pulse of 5 µg/ml Trf. To remove externally bound fluorescently labelled Trf the cells were thereafter washed (3x/2 min) in ice-cold acidic buffer (0.1 M Glycine-HCl buffer pH 2.5 with 150 mM NaCl)[35] whilst kept on ice. […]

SH-SY5Y cells [3] = assay: Cell viability by flow cytometry FSC/SSC live/dead gating; assay type: cell-based; conditions: for fraction of inhibitor-treated cells in the live gate: 90 min exposure at the concentrations used (10 µM cytochalasin A, 25 µg/ml cytochalasin D, 10 µM IPA-3, 25 nM wortmannin, 5 µg/ml CPZ, 80 µM dynasore), FSC/SSC gating
Protocol: Flow cytometry was used to quantify cellular uptake. […] For experiments including Trf B-27 was omitted, as outlined above. […] All samples were kept on ice until they were analysed on a Guava EasyCyte 8HT (Millipore, Darmstadt, Germany) that automatically retrieves samples from a 96-well plate. In order to exclude effects due to difference in delay time we used mixed order of analysis, loading only a few samples at a time with the remaining samples kept on ice. The cell counting gate was determined using propidium iodide (0.5 µM, not washed away prior to analysis) and calcein-AM (10 nM, 15 min staining) to distinguish live and dead cells, and for each sample 5,000 cells from within the live gate were counted and analysed. […] Compensation was performed to adjust for bleed through in experiments including mRFP. Mean cellular uptake was estimated as the average fluorescence intensity of all cells gated within the live region and all individual experiments were performed with three technical replicates (n = 3) unless else is stated. The average fluorescence intensity was baseline corrected by subtracting the signal for unstained cells.
(1 picture or pasted object on this page, not shown here)

[4] = tested on: SH-SY5Y cells transfected with AP180-C; assay: Uptake in cells overexpressing AP180-C; assay type: cell-based, human; conditions: SH-SY5Y 24 h post transfection; HF488-labelled Aβ 1 µM 1 h or AF647-Trf 5 µg/ml 5 min; low and high mRFP gates; N = 2, n = 2–4
Protocol: as §1, with “cells. […]” for “cells.”

[5] = tested on: SH-SY5Y cells transfected with dyn2 K44A; assay: Uptake in cells transfected with dominant negative dynamin2 K44A; assay type: cell-based, human; conditions: SH-SY5Y 24 h post transfection; HF647-labelled Aβ 1 µM 1 h or AF647-Trf 5 µg/ml 5 min; gated low/medium/high EGFP; N = 2, n = 3–5
Protocol: as §1, with “In order to exclude effects due to difference in delay time we used mixed order of analysis, loading only a few samples at a time with the remaining samples kept on ice.” left out, “HF647 and AlexaFluor647 were excited with a 635 nm laser and detected through a 661/19 nm filter. Compensation was performed to adjust for bleed through in experiments including mRFP. Mean cellular uptake was estimated as the average fluorescence intensity of all cells gated within the live region and all individual experiments were performed with three technical replicates (n = 3) unless else is stated. The average fluorescence intensity was baseline corrected by subtracting the signal for unstained cells.” left out

| Compound | effect of inhibitor on Trf uptake (SH-SY5Y cells [2]; n = 3) | fraction of inhibitor-treated cells in the live gate (SH-SY5Y cells [3]) | further results |
| --- | --- | --- | --- |
| CN(C)CCCN1c2ccccc2Sc2ccc(Cl)cc21 [CPZ, chlorpromazine hydrochloride] | – | – | stability in solution [1]: rapidly degraded in aqueous solutions; also recorded: rapid degradation in solution; inhibition at 5 µg/mL (SH-SY5Y cells [2]; Homo sapiens, 5 µg/ml CPZ, Trf 5 µg/ml 5 min pulse at end of 1 h Aβ incubation, n = 3): ~30% |
| CCN(c1nc(N)c(C(=O)NC(=N)N)nc1Cl)C(C)C [EIPA] | – | – | specificity as macropinocytosis inhibitor (SH-SY5Y cells [2]; 25–200 µM): unspecific in SH-SY5Y cells regardless of the concentration used |
| Oc1ccc2ccccc2c1SSc1c(O)ccc2ccccc12 [IPA-3, 1,1′-Disulfanediyldinaphthalen-2-ol] | identical to that in the control | at least 90% | – |
| C=C1[C@@H](C)[C@H]2[C@H](Cc3ccccc3)NC(=O)[C@]23OC(=O)/C=C/C(=O)CCC[C@@H](C)C/C=C/[C@H]3[C@@H]1O [cytochalasin A] | reduced the uptake of Trf | > 85% | – |
| C=C1[C@@H](C)[C@H]2[C@H](Cc3ccccc3)NC(=O)[C@]23[C@H](OC(C)=O)/C=C/[C@@](C)(O)C(=O)[C@@H](C)C/C=C/[C@H]3[C@@H]1O [cytochalasin D] | reduced the uptake of Trf | > 85% | – |
| O=C(N/N=C/c1ccc(O)c(O)c1)c1cc2ccccc2cc1O [dynasore] | – | – | inhibition at 80 µM (SH-SY5Y cells [2]; Homo sapiens, 5 min, 80 µM dynasore, 5 µg/ml AF647-Trf 5 min pulse, range over 4 independent experiments): 30 to 65% |
| COC[C@H]1OC(=O)c2coc3c2[C@@]1(C)C1=C(C3=O)[C@@H]2CCC(=O)[C@@]2(C)C[C@H]1OC(C)=O [wortmannin] | identical to that in the control | at least 90% | – |
| Transferrin [Trf] | – | – | uptake in AP180-C transfected cells compared to non-transfected cells [4]: systematically decreased with the degree of AP180-C overexpression; uptake in dyn2 K44A transfected cells relative to non-transfected cells [5]: inhibited in proportion to the degree of dyn2 K44A expression |
| methyl-β-cyclodextrin | – | – | cytotoxicity during cholesterol depletion (SH-SY5Y cells [3]): high levels of cytotoxicity |

— article PMC5435687 (Scientific Reports, 2017)
